# Test results published in US9034851B2, “Substituted pyrimidines” (MERCK SHARP & DOHME CORP., priority 2011, dated 2015).
# Biological target: T1, HIF PHD2 (Homo sapiens, UniProt Q9GZT9)
# T1 construct: FLAG-tagged full length PHD2; FLAG; made in house; host or cells: baculovirus-infected Sf9 cells
# Experiment: PHD2 inhibition assay (time resolved fluorescence, HIF-1α peptide hydroxylation / VHL detection)
# Type: biochemical
# Conditions: FLAG-tagged full length PHD2; 0.2 μM 2-oxoglutarate, 0.5 μM HIF-1α peptide
# Procedure: To each well of a 96-well plate was added 1 μL of test compound in DMSO and 20 μl of assay buffer (50 mM Tris pH 7.4/0.01% Tween-20/0.1 mg/ml bovine serum albumin/10 μM ferrous sulfate/1 mM sodium ascorbate/20 μg/ml catalase) containing 0.15 μg/ml FLAG-tagged full length PHD2 expressed in and purified from baculovirus-infected Sf9 cells. After a 30 min preincubation at room temperature, the enzymatic reactions were initiated by the addition of 4 μL of substrates (final concentrations of 0.2 μM 2-oxoglutarate and 0.5 μM HIF-1α peptide biotinyl-DLDLEMLAPYIPMDDDFQL (SEQ ID NO:1)). After 2 hours at room temperature, the reactions were terminated and signals were developed by the addition of a 25 μL quench/detection mix to a final concentration of 1 mM ortho-phenanthroline, 0.1 mM EDTA, 0.5 nM anti-(His)6 LANCE reagent (Perkin-Elmer Life Sciences), 100 nM AF647-labeled streptavidin (Invitrogen), and 2 μg/ml (His)6-VHL complex (S. Tan (2001) Protein Expr. Purif. 21, 224-234). The ratio of time resolved fluorescence signals at 665 and 620 nm was determined; and percent inhibition was calculated relative to an uninhibited control sample run in parallel.
# T1 sequence (Q9GZT9 whole entry): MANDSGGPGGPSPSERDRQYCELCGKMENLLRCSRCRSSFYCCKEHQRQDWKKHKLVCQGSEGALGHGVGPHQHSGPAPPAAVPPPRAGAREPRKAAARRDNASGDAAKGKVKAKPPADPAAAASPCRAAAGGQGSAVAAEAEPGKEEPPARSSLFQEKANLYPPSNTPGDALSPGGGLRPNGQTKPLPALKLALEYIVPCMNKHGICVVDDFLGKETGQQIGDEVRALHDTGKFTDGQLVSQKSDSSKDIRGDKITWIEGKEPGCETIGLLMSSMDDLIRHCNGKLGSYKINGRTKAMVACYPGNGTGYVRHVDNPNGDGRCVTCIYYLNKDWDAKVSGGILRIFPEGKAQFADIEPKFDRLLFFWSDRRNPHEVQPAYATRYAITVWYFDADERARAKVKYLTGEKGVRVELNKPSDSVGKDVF
row,IC50 [nM],SMILES
1,20 to 100,"O=C(NCP(=O)(O)O)c1ncc(C(=O)NC(c2ccccc2)c2ccccc2)c(O)n1 [Compound 2-13, {[({5-[(diphenylmethyl)carbamoyl]-4-hydroxypyrimidin-2-yl}carbonyl)amino]methyl}phosphonicacid]"
2,0.5 to 20,"CCOC(=O)CNC(=O)c1ncc(C(=O)NC(c2ccc(F)cc2)c2ccc(F)cc2)c(O)n1 [Compound 2-18, Ethyl 2-(5-(bis(4-fluorophenyl)methylcarbamoyl)-4-hydroxypyrimidine-2-carboxamido)acetate]"
3,0.5 to 20,"COC(=O)CNC(=O)c1ncc(C(=O)NC(c2ccccc2)c2ccccc2)c(O)n1 [Compound 2-3, Methyl N-({5-[(diphenylmethyl)carbamoyl]-4-hydroxypyrimidin-2-yl}carbonyl)glycinate]"
4,100 to 10000,"CCOC(=O)CNC(=O)c1ncc(C(=O)NCc2cccc3ccccc23)c(O)n1 [Compound 2-20, Ethyl-2-(4-hydroxy-5-(naphthalen-1-ylmethylcarbamoyl)pyrimidine-2-carboxamido)acetate]"
5,0.5 to 20,"CCOC(=O)CNC(=O)c1ncc(C(=O)NC(c2ccccc2)c2ccccc2)c(O)n1 [Compound 2-2, Ethyl N-({5-[(diphenylmethyl)carbamoyl]-4-hydroxypyrimidin-2-yl}carbonyl)glycinate]"
6,0.5 to 20,"O=C(O)CNC(=O)c1ncc(C(=O)NC(c2ccc(F)cc2)c2ccc(F)cc2)c(O)n1 [Compound 2-19, 2-(5-(bis(4-fluorophenyl)methylcarbamoyl)-4-hydroxypyrimidine-2-carboxamido) acetic acid]"
7,0.5 to 20,"CP(=O)(O)CNC(=O)c1ncc(C(=O)NC(c2ccccc2)c2ccccc2)c(O)n1 [Compound 2-14, {[({5-[(diphenylmethyl)carbamoyl]-4-hydroxypyrimidin-2-yl}carbonyl)amino]methyl}methylphosphinicacid]"
8,20 to 100,"O=C(O)CNC(=O)c1ncc(C(=O)NCc2ccc3ccccc3c2)c(O)n1 [Compound 2-22, N-({4-hydroxy-5-[(naphthalen-2-ylmethyl)carbamoyl]pyrimidin-2-yl}carbonyl)glycine]"
9,0.5 to 20,"O=C(O)CCNC(=O)c1ncc(C(=O)NC(c2ccccc2)c2ccccc2)c(O)n1 [Compound 2-11, 3-(5-(benzhydrylcarbamoyl)-4-hydroxypyrimidine-2-carboxamido)propanoic acid]"
10,20 to 100,"O=C(O)CNC(=O)c1ncc(C(=O)NCc2cccc3ccccc23)c(O)n1 [Compound 2-21, 2-(4-hydroxy-5-(naphthalen-1-ylmethylcarbamoyl)pyrimidine-2-carboxamido)acetic acid]"
11,0.5 to 20,"O=C(NCCS(=O)(=O)O)c1ncc(C(=O)NC(c2ccccc2)c2ccccc2)c(O)n1 [Compound 2-4, 2-[({5-[(diphenylmethyl)carbamoyl]-4-hydroxypyrimidin-2-yl}carbonyl)amino]ethanesulfonic acid]"
12,0.5 to 20,"COc1ccc(C(NC(=O)c2cnc(C(=O)NCC(=O)O)nc2O)c2ccc(OC)cc2)cc1 [Compound 2-17, 2-(5-(bis(4-methoxyphenyl)methylcarbamoyl)-4-hydroxypyrimidine-2-carboxamido)acetic acid]"
13,0.5 to 20,"O=C(O)CNC(=O)c1ncc(C(=O)NC(c2ccccc2)c2ccccc2)c(O)n1 [Compound 2-12, 2-(5-(benzhydrylcarbamoyl)-4-hydroxypyrimidine-2-carboxamido)acetic acid]"
14,0.5 to 20,"O=C(CNC(=O)c1ncc(C(=O)NC(c2ccccc2)c2ccccc2)c(O)n1)OCc1ccccc1 [Compound 2-7, Benzyl N-({5-[(diphenylmethyl)carbamoyl]-4-hydroxypyrimidin-2-yl}carbonyl)glycinate]"
15,0.5 to 20,"CCOC(=O)CCNC(=O)c1ncc(C(=O)NC(c2ccccc2)c2ccccc2)c(O)n1 [Compound 2-1, Ethyl N-({5-[(diphenylmethyl)carbamoyl]-4-hydroxypyrimidin-2-yl}carbonyl)-β-alaninate]"
16,0.5 to 20,"CP(=O)(O)c1cnn(-c2ncc(C(=O)NC(c3ccccc3)c3ccccc3)c(O)n2)c1 [Compound 1-1, 1-(5-(benzhydrylcarbamoyl)-4-hydroxypyrimidin-2-yl)-1H-pyrazol-4-yl(methyl)phosphinic acid]"
17,0.5 to 20,"O=C(O)CNC(=O)c1ncc(NC(=O)C(c2ccccc2)c2ccccc2)c(O)n1 [Compound 3-1, 2-(5-(2,2-Diphenylacetamido)-4-hydroxypyrimidine-2-carboxamido)acetic acid]"

row,SMILES,IC50 [nM]
1,"CCOP(=O)(CNC(=O)c1ncc(C(=O)NC(c2ccccc2)c2ccccc2)c(O)n1)OCC [Compound 2-5, Diethyl {[({5-[(diphenylmethyl)carbamoyl]-4-hydroxypyrimidin-2-yl}carbonyl)amino]methyl}phosphonate]",20 to 100
2,"CCOP(C)(=O)CNC(=O)c1ncc(C(=O)NC(c2ccccc2)c2ccccc2)c(O)n1 (stereo not shown) [Compound 2-6, Ethyl {[({5-[(diphenylmethyl)carbamoyl]-4-hydroxypyrimidin-2-yl}carbonyl)amino]methyl}methylphosphinate]",0.5 to 20
